US11155557B2, “Pyrazolopyrimidine compounds and methods of use thereof” (Genentech, Inc., priority 2016, dated 2021)

Legend:
[1] = molecular target: isolated recombinant JAK1 kinase domain (Homo sapiens (Human), UniProt P23458); assay: JAK1 enzyme assay (Caliper LabChip, Ki); format: biochemical
Procedure: The activity of the isolated recombinant JAK1 and JAK2 kinase domain was measured by monitoring phosphorylation of a peptide derived from JAK3 ([…] fluorescently labeled on the N-terminus with 5-carboxyfluorescein) using the Caliper LabChip R technology (Caliper Life Sciences, Hopkinton, Mass.).

[2] = molecular target: isolated recombinant JAK2 kinase domain (Homo sapiens (Human), UniProt O60674); assay: JAK2 enzyme assay (Caliper LabChip, Ki); settings: read-out: JAK2 Ki
[3] = system: JAK1-dependent STAT6 phosphorylation in BEAS-2B human bronchial epithelial cells; assay: JAK1 pathway assay: IL-13 stimulated STAT6 phosphorylation in BEAS-2B cells; format: cell-based; settings: Homo sapiens, BEAS-2B, BEAS-2B cells, IL-13 stimulation; read-out: IL-13 p-STAT6 BEAS-2B IC50
Procedure: JAK1 Pathway Assay in Cell Lines was Carried Out as Follows:
Inhibitor potency (EC50) was determined in cell-based assays designed to measure JAK1 dependent STAT phosphorylation.
In one assay approach, TF-1 human erythroleukemia cells obtained from the American Type Culture Collection (ATCC; Manassas, Va.) were used to measure JAK1-dependent STAT6 phosphorylation downstream of IL-13 stimulation. Prior to use in the assays, TF-1 cells were starved of GM-CSF overnight in OptiMEM medium (Life Technologies, Grand Island, N.Y.) supplemented with 0.5% charcoal/dextran stripped fetal bovine serum (FBS), 0.1 mM non-essential amino acids (NEAA), and 1 mM sodium pyruvate. The assays were run in 384-well plates in serum-free OptiMEM medium using 300,000 cells per well. In a second assay approach, BEAS-2B human bronchial epithelial cells obtained from ATCC were plated at 100,000 cells per well of a 96-well plate one day prior to the experiment. The BEAS-2B assay was run in complete growth medium (bronchial epithelial basal medium plus bulletkit; Lonza; Basel, Switzerland).
Test compounds were serially diluted 1:2 in DMSO and then diluted 1:50 in medium just before use. Diluted compounds were added to the cells, for a final DMSO concentration of 0.2%, and incubated for 30 min (for the TF-1 assay) or 1 hr (for the BEAS-2B assay) at 37° C. Then, cells were stimulated with human recombinant cytokine at their respective EC90 concentrations, as previously determined for each individual lot. Cells were stimulated with IL-13 (R&D Systems, Minneapolis, Minn.) for 15 min at 37° C. […] The resultant samples were frozen in the plates at −80° C. Compound mediated inhibition of STAT6 phosphorylation was measured in the cell lysates using MesoScale Discovery (MSD) technology (Gaithersburg, Md.).

Chain of isolated recombinant JAK1 kinase domain (P23458 875-1153): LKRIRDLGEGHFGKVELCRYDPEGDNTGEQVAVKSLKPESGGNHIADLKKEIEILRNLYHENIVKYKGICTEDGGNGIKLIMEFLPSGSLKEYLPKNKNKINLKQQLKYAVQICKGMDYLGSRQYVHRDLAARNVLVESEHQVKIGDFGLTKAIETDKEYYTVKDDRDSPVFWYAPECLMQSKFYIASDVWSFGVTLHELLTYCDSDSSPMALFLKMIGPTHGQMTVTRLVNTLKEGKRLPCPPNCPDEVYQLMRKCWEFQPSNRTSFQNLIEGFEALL
Chain of isolated recombinant JAK2 kinase domain (O60674 849-1124): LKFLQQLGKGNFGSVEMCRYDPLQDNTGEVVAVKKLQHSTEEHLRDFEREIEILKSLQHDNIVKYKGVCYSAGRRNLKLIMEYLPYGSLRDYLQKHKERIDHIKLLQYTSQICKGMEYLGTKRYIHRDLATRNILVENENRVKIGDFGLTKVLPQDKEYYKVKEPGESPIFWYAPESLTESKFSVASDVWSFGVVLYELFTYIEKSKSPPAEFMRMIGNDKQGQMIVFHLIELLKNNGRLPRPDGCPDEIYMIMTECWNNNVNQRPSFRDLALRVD

Row | Ki [1] | Ki [2] | SMILES | IC50 [3]
1 | 2.09 nM | 0.9 nM | COc1cc2[nH]cnc2cc1-c1n[nH]cc1NC(=O)c1cnn2cccnc12 [Example 31, N-[3-(6-methoxy-1H-benzimidazol-5-yl)-1H-pyrazol-4-yl]pyrazolo[1,5-a]pyrimidine-3-carboxamide] | 6910 nM
2 | 0.08 nM | 0.06 nM | CC1CSc2cc(-c3n[nH]cc3NC(=O)c3cnn4cccnc34)c(OC(F)F)cc2N1 (racemic) [Example 41, N-[3-[6-(difluoromethoxy)-3-methyl-3,4-dihydro-2H-1,4-benzothiazin-7-yl]-1H-pyrazol-4-yl]pyrazolo[1,5-a]pyrimidine-3-carboxamide] | 4 nM
3 | 0.13 nM | 0.1 nM | O=C(Nc1cn(CC(=O)N2CCCCC2)nc1-c1cc2c(cc1OC(F)F)NCCS2)c1cnn2cccnc12 [Example 51, N-[3-[6-(difluoromethoxy)-3,4-dihydro-2H-1,4-benzothiazin-7-yl]-1-[2-oxo-2-(1-piperidyl)ethyl]pyrazol-4-yl]pyrazolo[1,5-a]pyrimidine-3-carboxamide] | 11 nM
4 | 9.27 nM | 6.01 nM | COc1cc2sc(C(N)=O)cc2cc1-c1n[nH]cc1NC(=O)c1cnn2cccnc12 [Example 23, N-(3-(2-carbamoyl-6-methoxybenzo[b]thiophen-5-yl)-1H-pyrazol-4-yl)pyrazolo[1,5-a]pyrimidine-3-carboxamide] | –
5 | 0.08 nM | 0.05 nM | CC1(C)CNc2cc(OC(F)F)c(-c3n[nH]cc3NC(=O)c3cnn4cccnc34)cc2S1 [Example 110, N-[3-[6-(difluoromethoxy)-2,2-dimethyl-3,4-dihydro-1,4-benzothiazin-7-yl]-1H-pyrazol-4-yl]pyrazolo[1,5-a]pyrimidine-3-carboxamide] | 10 nM
6 | 0.69 nM | 0.24 nM | O=C(Nc1c[nH]nc1-c1cc2c(cc1OC(F)F)CC(CO)O2)c1cnn2cccnc12 (racemic) [Example 15, N-(3-(5-(difluoromethoxy)-2-(hydroxymethyl)-2,3-dihydrobenzofuran-6-yl)-1H-pyrazol-4-yl)pyrazolo[1,5-a]pyrimidine-3-carboxamide] | 143 nM
7 | 1.63 nM | 0.98 nM | CN1CCCC(n2cc(NC(=O)c3cnn4cccnc34)c(-c3cc4cn[nH]c4cc3OC(F)F)n2)C1 (racemic) [Example 74, N-[3-[6-(difluoromethoxy)-1H-indazol-5-yl]-1-(1-methyl-3-piperidyl)pyrazol-4-yl]pyrazolo[1,5-a]pyrimidine-3-carboxamide] | 18 nM
8 | 0.2 nM | 0.23 nM | CC1CSc2cc(-c3nn(CC(=O)N4CCCCC4)cc3NC(=O)c3cnn4cccnc34)c(OC(F)F)cc2N1 (single isomer, unassigned) [Example 107, N-[3-[6-(difluoromethoxy)-3-methyl-3,4-dihydro-2H-1,4-benzothiazin-7-yl]-1-[2-oxo-2-(1-piperidyl)ethyl]pyrazol-4-yl]pyrazolo[1,5-a]pyrimidine-3-carboxamide] | 11 nM
9 | 0.28 nM | 0.11 nM | COc1cc2ccsc2cc1-c1n[nH]cc1NC(=O)c1cnn2cccnc12 [Example 35, N-[3-(5-methoxybenzothiophen-6-yl)-1H-pyrazol-4-yl]pyrazolo[1,5-a]pyrimidine-3-carboxamide] | 3 nM
10 | 0.64 nM | – | O=C(O)Cn1cc(NC(=O)c2cnn3cccnc23)c(-c2cc3ccccc3cc2OC(F)F)n1 [Example 2, 2-(3-(3-(difluoromethoxy)naphthalen-2-yl)-4-(pyrazolo[1,5-a]pyrimidine-3-carboxamido)-1H-pyrazol-1-yl)acetic acid] | 128 nM
11 | 0.6 nM | 0.19 nM | COc1cc2sccc2cc1-c1[nH]ncc1NC(=O)c1cnn2cccnc12 [Example 34, N-[5-(6-methoxybenzothiophen-5-yl)-1H-pyrazol-4-yl]pyrazolo[1,5-a]pyrimidine-3-carboxamide] | 10 nM
12 | 0.4 nM | 0.58 nM | CN(CCC#N)C1CCN(C(=O)Cn2cc(NC(=O)c3cnn4cccnc34)c(-c3cc4ccccc4cc3OC(F)F)n2)CC1 [Example 63, N-[1-[2-[4-[2-cyanoethyl(methyl)amino]-1-piperidyl]-2-oxo-ethyl]-3-[3-(difluoromethoxy)-2-naphthyl]pyrazol-4-yl]pyrazolo[1,5-a]pyrimidine-3-carboxamide] | 14 nM
13 | 0.25 nM | 0.15 nM | O=C(Nc1cn(Cc2ncco2)nc1-c1cc2c(cc1OC(F)F)NCCS2)c1cnn2cccnc12 [Example 124, N-[3-[6-(difluoromethoxy)-3,4-dihydro-2H-1,4-benzothiazin-7-yl]-1-(oxazol-2-ylmethyl)pyrazol-4-yl]pyrazolo[1,5-a]pyrimidine-3-carboxamide] | 20 nM
14 | 0.21 nM | 0.09 nM | O=C(Nc1c[nH]nc1-c1cc2c(cc1OC(F)F)CCO2)c1cnn2cccnc12 [Example 16, N-(3-(5-(difluoromethoxy)-2,3-dihydrobenzofuran-6-yl)-1H-pyrazol-4-yl)pyrazolo[1,5-a]pyrimidine-3-carboxamide] | 5 nM
15 | 0.41 nM | 0.41 nM | N#Cc1cc2cc(OC(F)F)c(-c3nn(CC(=O)N4CCC(N5CCOCC5)CC4)cc3NC(=O)c3cnn4cccnc34)cc2s1 [Example 55, N-[3-[2-cyano-5-(difluoromethoxy)benzothiophen-6-yl]-1-[2-(4-morpholino-1-piperidyl)-2-oxo-ethyl]pyrazol-4-yl]pyrazolo[1,5-a]pyrimidine-3-carboxamide] | 20 nM
16 | 0.07 nM | 0.03 nM | CC1CNc2cc(OC(F)F)c(-c3n[nH]cc3NC(=O)c3cnn4cccnc34)cc2S1 (single isomer, unassigned) [Example 93, N-[3-[6-(difluoromethoxy)-2-methyl-3,4-dihydro-2H-1,4-benzothiazin-7-yl]-1H-pyrazol-4-yl]pyrazolo[1,5-a]pyrimidine-3-carboxamide] | 6 nM
17 | 0.2 nM | 0.19 nM | CN1CCC[C@@H]1Cn1cc(NC(=O)c2cnn3cccnc23)c(-c2cc3c(cc2OC(F)F)NC(=O)CS3)n1 [Example 73, N-[3-[6-(difluoromethoxy)-3-oxo-4H-1,4-benzothiazin-7-yl]-1-[[(2R)-1-methylpyrrolidin-2-yl]methyl]pyrazol-4-yl]pyrazolo[1,5-a]pyrimidine-3-carboxamide] | 9 nM
18 | 0.91 nM | 0.36 nM | CC1(C)COc2cc(OC(F)F)c(-c3n[nH]cc3NC(=O)c3cnn4cccnc34)cc2C1=O [Example 115, N-[3-[7-(difluoromethoxy)-3,3-dimethyl-4-oxo-chroman-6-yl]-1H-pyrazol-4-yl]pyrazolo[1,5-a]pyrimidine-3-carboxamide] | 55 nM
19 | 8.02 nM | 2.59 nM | CC(C)(C)OC(=O)N1CCC(C(=O)Cn2ncc3cc(-c4n[nH]cc4NC(=O)c4cnn5cccnc45)c(OC(F)F)cc32)CC1 [Example 18, tert-butyl 4-(2-(6-(difluoromethoxy)-5-(4-(pyrazolo[1,5-a]pyrimidine-3-carboxamido)-1H-pyrazol-3-yl)-1H-indazol-1-yl)acetyl)piperidine-1-carboxylate] | –
